From patent US7498292B2, “Combinatorial libraries of autoinducer analogs, autoinducer agonists and antagonists, and methods of use thereof” (The Research Foundation of State University of New York, priority 2002, dated 2009)

Experiments:
[1] = test system: pyocyanin; experiment: pyocyanin assay, wild type strain PAO1; format: cell-based, P. aeruginosa PAO1; conditions: wild type PAO1, no AIs added
Experimental: For the pyocyanin assay, cells were grown overnight in LB then washed in fresh media and diluted to an OD600 of 0.05. This culture was grown for 3-4 hours to mid-log phase (OD600 of 0.3-0.5), then diluted to an OD600 of 0.05, and aliquoted to test tubes containing an appropriate amount of test compound(s). Following 18 hours of growth, pyocyanin was extracted from filtered culture supernatants and quantified using standard methods (Essar et al., J. Bacteriol. 172:884-900 (1990), which is hereby incorporated by reference in its entirety).

[2] = target: T1, LasR (Pseudomonas aeruginosa, UniProt P25084); experiment: lasI-gfp reporter antagonist (competition against AI1) assay, PAO-JP2 (plasI-LVAgfp); format: cell-based, P. aeruginosa; conditions: 100-fold excess concentration over AI1 (1 μM AI1)
T1 construct: endogenous in cells; host or cells: P. aeruginosa PAO-JP2 (lasI, rhlI) harboring plasI-LVAgfp
T1 sequence (P25084 whole entry): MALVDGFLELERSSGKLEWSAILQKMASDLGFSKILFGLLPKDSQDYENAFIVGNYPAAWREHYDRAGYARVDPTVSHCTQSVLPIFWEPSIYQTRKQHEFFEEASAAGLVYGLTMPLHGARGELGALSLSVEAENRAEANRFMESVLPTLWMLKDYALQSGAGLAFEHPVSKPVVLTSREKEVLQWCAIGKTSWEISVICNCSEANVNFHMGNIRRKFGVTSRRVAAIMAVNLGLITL
Experimental: P. aeruginosa strain PAO-JP2 (lasI, rhlI) (Rahme et al., Science 268:1899-1902 (1995), which is hereby incorporated by reference in its entirety) harboring plasI-LVAgfp (Pearson et al., Proc. Natl Acad. Sci. USA 91:197-201 (1994), which is hereby incorporated by reference in its entirety) was grown at 37° C. in LB with 300 μg/ml carbenicillin. For agonist assays, an overnight culture was diluted to an OD600 of 0.1 and transferred to wells of a 96-well plate on which test compounds had previously been added and dried. The final concentration of each analog tested was roughly 400 μM, although this is an overestimate due to purity issues. Cells were then incubated for 6 hours at 37° C. with vigorous shaking. GFP expression was detected with a Molecular Imager (BioRad) (488 nm excitation and 695 nm bandpass filter) and quantified with ImageQuant software. The OD600 of cultures was determined to normalize GFP expression to cell density.
The methods were the same as described in Example 2 (GFP Reporter Assay), except that 1 μM AI1 was added to each well in combination with the library compound. The fluorescence/OD600 of each compound competing against AI1 was reported relative to the fluorescence/OD600 of the positive control of AI1 alone, which was set to 1. When strain PAO-JP2 (prhlI-LVAgfp) was used, the positive control was 1 μM AI1 and 10 μM AI2. Eight compounds that inhibited reporter gene expression by greater than 50% were identified (see, e.g., FIG. 6).
Reporter strains were grown overnight in LB plus 300 μg/ml carbenicillin at 37° C. and diluted to an OD600 of 0.1. Following an incubation of 1 hour, 200 μl of cell culture was added to individual wells of a 96 well plate containing appropriate amount of test compound(s). Plates were incubated for 6 hours and then scanned for fluorescence emission with a Molecular Imager (488 nm excitation and 695 nm bandpass filter). Fluorescence was quantified with ImageQuant software.

[3] = test system: P. aeruginosa; experiment: cell growth in the reporter assay; format: cell-based; conditions: concentrations up to 400 μM
Experimental: Based on the above hypothesis, a competition assay of 2 and 3 against AI1, using strain PAO-JP2 (plasI-LVAgfp), was performed. […] It should be noted that this inhibition experiment was performed with competition against 1 μM AI1, a concentration typically produced by wild type P. aeruginosa (Pearson et al., Proc. Natl Acad. Sci. USA 92:1490-1494 (1995), which is hereby incorporated by reference in its entirety). […] It should also be noted that cell growth was not affected by the addition of 2 or 3 at concentrations up to 400 μM. Thus, it appears that compounds 2 and 3 act as specific inhibitors of QS controlled promoters. Compound 6 was also tested for its ability to compete against AI2, but no inhibition of the rhlI-gfp reporter gene was seen.

[4] = test system: Elastase B; experiment: elastase (Elastin Congo Red) assay, wild type strain PAO1; format: cell-based, P. aeruginosa PAO1; conditions: wild type PAO1, 100 μM compound
Experimental: Pyocyanin, elastase, and biofilm were assayed as previously described (Smith et al., Chem. Biol. 10:81-89 (2003), which is hereby incorporated by reference in its entirety). Elastase activity produced by P. aeruginosa in the presence of AIs and competing 3-oxo-C12-D10 was determined by measuring breakdown of the substrate Elastin Congo Red.
For the elastase B assay, cells (PAO-JP2) were grown overnight in PTSB media (5% Peptone, 0.1% Tryptic Soy Broth) at 37° C., washed and diluted to an OD600 of 0.05, grown to mid-log phase, washed again, and re-suspended to an OD600 of 0.05. The culture was then added to test tubes containing test compound(s) and grown for 6 hours. Elastase B activity was quantified by incubation of 100 μl of filtered culture supernatant with 5 mg Elastin Congo Red substrate and 1 ml of 10 mM Tris pH 7.2, 1 mM CaCl2 for 6 hours at 37° C. with agitation. Elastase B activity is represented by the OD495 of the enzyme assay following reaction quenching with EDTA and centrifugation to remove unreacted substrate, divided by the OD600 of the cell culture. The same assay was run with strain PAO-1, however no exogenous autoinducers were added.

With CCCCCCCCCC(=O)CC(=O)NC1CCCCC1=O (racemic) [Compound 3, N-(2-oxocyclohexyl)-3-oxododecanamide] the “effect on pyocyanin production” value [1] was “very similar inhibitory effect”, the “inhibition of GFP expression (lasI-gfp)” value [2] was 35% and the “effect on cell growth” value [3] was “not affected”. The “elastase activity, % of the control level” value [4] was 30%.
